Columns and labels:
Nrf2 pathway = assay: Nrf2 activation (ARE-Luc luciferase) in HaCaT-ARE-Luc keratinocytes; format: cell-based; conditions: 6 h, increasing concentrations; Figure 7
Description: Nrf2 is a transcription factor which, upon activation in response to inflammatory or oxidative stress, activates a robust anti-inflammatory and cytoprotective transcription program. Therefore, Nrf2 activation may represent a novel approach for the treatment of scleroderma and other fibrotic diseases. Thus, the effect of CBD isomers on the activation of the Nrf2 pathway in the keratinocyte cell line HaCaT-ARE-Luc, containing the Nqo1 Antioxidant Response Element (ARE)-Luc reporter plasmid stably transfected, was explored. ARE is activated by all members of the CNC family of factors (Nrf1, Nrf2, Nrf3 and p45 NF-E2). The cells are cultivated in 96-well plates at the concentration of 2x10^4 cells/well in a CO2 incubator at 37°C. For induction of Nrf2 activation the cells were treated with increasing concentrations of the CBD isomers for 6 h. As a positive control the cells were treated with 0,01 mM of Tert-butyl-hydroperoxide (TBHP) for 6 h. […] Luciferase activity was measured using TriStar^2 Berthold/LB942 multimode reader (Berthold Technologies) following the instructions of the luciferase assay kit (Promega, Madison, WI, USA). The background obtained with the lysis buffer was subtracted in each experimental value, and the specific transactivation expressed as fold induction over basal levels (untreated cells).

mouse seizure model = conditions: Leite et al. 1982; cited from earlier work
CB1 = conditions: Bisogno et al. 2001; cited from earlier work
CB2 = CB2 (Homo sapiens, UniProt P34972); conditions: Bisogno et al. 2001; cited from earlier work
CB2, sequence (P34972 whole entry, species assumed): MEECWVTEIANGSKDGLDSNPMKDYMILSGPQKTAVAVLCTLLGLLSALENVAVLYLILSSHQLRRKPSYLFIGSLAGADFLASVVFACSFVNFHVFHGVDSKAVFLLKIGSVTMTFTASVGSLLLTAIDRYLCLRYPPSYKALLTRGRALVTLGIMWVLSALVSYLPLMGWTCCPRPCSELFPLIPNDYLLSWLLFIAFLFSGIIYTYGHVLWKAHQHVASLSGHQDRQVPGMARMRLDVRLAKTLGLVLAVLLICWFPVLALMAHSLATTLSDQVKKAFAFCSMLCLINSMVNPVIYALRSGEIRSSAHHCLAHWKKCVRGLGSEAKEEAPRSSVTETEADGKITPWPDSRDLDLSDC

human COL1A2 promoter = assay: Col1A2 gene transcriptional activity (luciferase) in NIH-3T3-Col1A2-luc cells stimulated with TGFβ; format: cell-based, mouse; conditions: TGFβ 10 ng/ml, 24 h; Figure 3
Description: The effect of CBD isomers on collagen transcriptional regulation in NIH-3T3 cells stably expressing the Col1A2-luc plasmid, which encodes the gene promoter of the pro-alpha2 chain component of type I collagen fused to the luciferase gene, was studied. NIH-3T3-COL1A2-Luc fibroblast cells were generated by stable transfection of the COL-1A2-Luc plasmid, containing sequences from -353 to +58 bp of the human COL1A2 promoter fused to the luciferase reporter gene, and pPURO plasmid. Cells are cultivated at a density of 1 x 10^4 cells/ml for 24 h at 37°C. Then the cells were treated with the CBD isomers at several concentrations and TGFβ (10 ng/ml) for 24 h. Then, the cells are washed with PBS and lysed in 50 µl lysis buffer containing 25 mM Tris-phosphate (pH 7.8), 8 mM MgCl2, 1 mM DTT, 1% Triton X-100, and 7% glycerol during 15 min. Luciferase activity and protein concentration is measured in the cell lysates, to calculate the RLU/µg of protein and the results expressed as the percentage of induction considering the value obtained with TGFβ as 100% activation. The protein concentration in the cell extracts was measured by the Bradford method (BioRad).

NHDFs = assay: Fibroblast migration scratch (wound healing) assay in NHDFs; format: cell-based, human; conditions: Figure 6
Procedure: Migration of skin fibroblast plays a crucial role not only in normal wound healing but also in fibrotic diseases. To further analyze this point, it was tested if the anti-fibrotic effect of (-)CBD could be associated with reduced fibroblast migration. To investigate this possibility, the effect of (-)CBD on TGFβ-induced wound healing was investigated. NHDFs (2x10^3 cells) were seeded in complete DMEM in a 96-well Essen ImageLock plates (Essen BioScience). When cells reached confluence, wound scratches were made using the 96-pin WoundMaker (Essen BioScience). Then, culture medium was replaced by DMEM supplemented with 1% antibiotics and with mitomycin C (10 ng/ml) to block cell proliferation. (-)CBD and TGFβ1 10 ng/ml were added in parallel. Wound healing activity was analyzed using IncuCyte HD system by taking images every 3 h for 48 h and the percentage of wound confluence calculated with the IncuCyte software.

BLM-induced fibrosis = assay: Bleomycin (BLM) mouse model of skin fibrosis, histology and observation; format: in vivo, Mice
Procedure: The bleomycin (BLM) mice model is widely used to evaluate potential anti-inflammatory and anti-fibrotic therapies for SSc. BLM causes inflammation in a short period of time, characterized by elevation of proinflammatory cytokines and growth factors that peak around day 14 of BLM exposure. […] The inflammatory model of SSc was used to study (-)CBD preventive effects. Fibrosis was induced by daily subcutaneous administration of BLM (50 µg/mice; 100 µl) (Mylan, Barcelona, Spain) for 3 weeks. Treatments were administered in parallel and consisted of daily intraperitoneal (i.p.) injections of (-)CBD (20 mg/kg), or vehicle (4% DMSO, 6.2% Tween20, saline; 100 µl). Subcutaneous injections of 0.9% NaCl served as a control. Mice were acclimated to manipulators for a week previously to the experiments in order to reduce stress and allow the detection of subtle changes in behavior by researchers. […] Mice were sacrificed by cervical dislocation and the back skin was removed and processed for histological examination or was frozen for further analysis.
Mast cells degranulation as well as macrophages and lymphocyte accumulation are the hallmark of BLM-induced fibrosis and play important roles during the inflammatory phase of SSc. Mast cells degranulation can be identified by toluidine blue staining and macrophage accumulation by staining with a mAb that identifies F4/80^+ cells. Skin sections ([…]) were stained toluidine blue. For immunohistochemical detection of macrophages F4/80 (1:50; MCA497, Bio-Rad) antibody was used. Slides were developed with diaminobenzidine chromogen (Merck Millipore) and counterstained in Harris hematoxylin. Slides were photographed, digitalized using a Leica DFC420c camera and analyzed using Image J software.

[1] = test system: activated hepatic stellate cells; conditions: Lim et al. 2011; cited from earlier work
[2] = test system: diabetes-associated myocardial fibrosis; conditions: Rajesh et al. 2010; cited from earlier work
[3] = BLM 3 weeks, 20 mg/kg i.p. daily, Figure 8

SMILES | activation of the Nrf2 pathway (Nrf2 pathway) | anticonvulsant activity (mouse seizure model) | affinity at CB1 receptors (CB1) | affinity at CB2 receptors (CB2) | collagen promoter transcriptional activity (human COL1A2 promoter) | wound closure induced by TGFβ1 (NHDFs; TGFβ1 10 ng/ml, 48 h, concentration-dependent) | wound closure induced by rhIL-4 (NHDFs; rhIL-4, concentration-dependent) | dermal thickness (BLM-induced fibrosis; [3]) | loss of adipose tissue layer induced by BLM (BLM-induced fibrosis; [3]) | piloerection, hunched appearances (BLM-induced fibrosis; during the experimental procedures, 20 mg/kg i.p. daily) | behavioral changes (BLM-induced fibrosis; during the protocols, 20 mg/kg i.p. daily) | Mice weight (BLM-induced fibrosis; evaluated weekly, between experimental groups, 20 mg/kg i.p. daily) | infiltration of F4/80^+ macrophages (BLM-induced fibrosis; immunostaining, versus BLM untreated mice, 20 mg/kg i.p., Figure 10) | number of degranulated mast cells in the lesioned skin (BLM-induced fibrosis; toluidine blue, BLM 3 weeks, 20 mg/kg i.p., Figure 9) | cell death of activated hepatic stellate cells [1] | diabetes-associated myocardial fibrosis [2]
C=C(C)[C@H]1CCC(C)=C[C@@H]1c1c(O)cc(CCCCC)cc1O [(+)CBD, (+)Cannabidiol] | able to activate the Nrf2 pathway in keratinocytes and in a concentration-dependent manner | more active than the (-)CBD isomer | has been shown to have affinity | has been shown to have affinity | significantly reduced |  |  |  |  |  |  |  |  |  |  | 
C=C(C)[C@@H]1CCC(C)=C[C@H]1c1c(O)cc(CCCCC)cc1O [(-)CBD, 2-[(1R,6R)-3-methyl-6-prop-1-en-2-ylcyclohex-2-en-1-yl]-5-pentylbenzene-1,3-diol] | able to activate the Nrf2 pathway in keratinocytes and in a concentration-dependent manner |  |  |  | significantly reduced | significantly attenuated | significantly attenuated | attenuated | not were able to recover | Neither piloerection nor hunched appearances were appreciated | No behavioral changes | no significant changes | significantly reduced | prevented | induces cell death | attenuates

From EP3643303A1, “COMPOUNDS FOR USE IN THE TREATMENT OR PREVENTION OF FIBROTIC DISEASES; PHARMACEUTICAL, COSMETIC COMPOSITIONS AND USES THEREOF” (InnovativeHealth Group SL, priority 2018, dated 2020)
